Results: the supplement of paper PMC6045584
± gives the standard deviation of the averaged measurements.

Tests used:
[1] = compound: CS(=O)(=O)CCNCc1ccc(-c2ccc3ncnc(Nc4ccc(OCc5cccc(F)c5)c(Cl)c4)c3c2)o1 [LAPATINIB]; experiment: surviving fraction relative to DMSO-only wells; higher = less growth inhibition; conditions: exposure time: 5 days
How it was run: (§1)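 Inhibitors were tested at 0.5, 1, 5, 10, 50, 100, 500 and 1000 nM, applied continuously for five days beginning 24 hours after log-phase tumour cells were seeded at 250–500 per well in 384-well plates. CellTiter-Glo luminescence served as the viability measure, expressed as surviving fraction against the median of DMSO-only wells. Each line, screened three times, was kept only with replicate Pearson r >0.7 and median Z' >0.3.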

[2] = compound: Oc1ccc(/C=C/c2cc(O)cc(O)c2)cc1 [RESVERATROL]; experiment: as above; conditions: exposure time: 5 days
How it was run: as §1

| Test System | surviving fraction ([1]; 0.5 nM) | surviving fraction ([1]; 1 nM) | surviving fraction ([1]; 5 nM) | surviving fraction ([1]; 10 nM) | surviving fraction ([1]; 50 nM) | surviving fraction ([1]; 100 nM) | surviving fraction ([1]; 500 nM) | surviving fraction ([1]; 1000 nM) | surviving fraction ([2]; 0.5 nM) | surviving fraction ([2]; 1 nM) | surviving fraction ([2]; 5 nM) | surviving fraction ([2]; 10 nM) | surviving fraction ([2]; 50 nM) | surviving fraction ([2]; 100 nM) | surviving fraction ([2]; 500 nM) | surviving fraction ([2]; 1000 nM) |
| --- | --- | --- | --- | --- | --- | --- | --- | --- | --- | --- | --- | --- | --- | --- | --- | --- |
| MDAMB436 BREAST | 0.893 ± 0.14 | 0.996 ± 0.13 | 0.834 ± 0.091 | 0.896 ± 0.03 | 1.02 ± 0.072 | 1.03 ± 0.12 | 1.05 ± 0.23 | 1.04 ± 0.083 | 0.943 ± 0.049 | 1.01 ± 0.17 | 0.998 ± 0.2 | 1.01 ± 0.11 | 1.08 ± 0.21 | 0.993 ± 0.11 | 1.06 ± 0.15 | 1.07 ± 0.056 |
| MDAMB453 BREAST | 1.06 ± 0.024 | 1.04 ± 0.061 | 1.09 ± 0.099 | 1.11 ± 0.12 | 0.993 ± 0.026 | 1.04 ± 0.018 | 0.868 ± 0.043 | 0.752 ± 0.024 | 1.07 ± 0.059 | 1.06 ± 0.06 | 1.16 ± 0.022 | 1.11 ± 0.039 | 1.16 ± 0.05 | 1.12 ± 0.069 | 1.04 ± 0.058 | 1.09 ± 0.019 |
| MDAMB468 BREAST | 1.07 ± 0.019 | 1.01 ± 0.042 | 1.13 ± 0.054 | 1.09 ± 0.08 | 1.086 ± 0.01 | 1.1 ± 0.051 | 0.948 ± 0.043 | 0.785 ± 0.058 | 1.05 ± 0.11 | 1.13 ± 0.08 | 1.06 ± 0.059 | 1.07 ± 0.05 | 1.02 ± 0.047 | 1.14 ± 0.037 | 1.07 ± 0.053 | 1.09 ± 0.06 |
| MFM223 BREAST | 1.18 ± 0.13 | 1.18 ± 0.14 | 1.15 ± 0.027 | 1.13 ± 0.081 | 1.058 ± 0.01 | 1.2 ± 0.034 | 1.02 ± 0.084 | – | 1.06 ± 0.062 | 1.45 ± 0.56 | 1.15 ± 0.042 | 1.46 ± 0.46 | 1.08 ± 0.086 | 1.08 ± 0.18 | 1.19 ± 0.046 | 1.08 ± 0.11 |
| MG63 BONE | 0.98 ± 0.029 | 1.04 ± 0.027 | 1.06 ± 0.035 | 1.07 ± 0.035 | 1.04 ± 0.039 | 1.08 ± 0.023 | 1.09 ± 0.017 | 1.11 ± 0.038 | 1.01 ± 0.038 | 1.06 ± 0.048 | 1.07 ± 0.035 | 1.15 ± 0.021 | 1.04 ± 0.024 | 1.11 ± 0.029 | 1.03 ± 0.023 | 1.05 ± 0.031 |
| MHM BONE | 0.9907 ± 0.0093 | 1 ± 0.015 | 1.05 ± 0.014 | 1.07 ± 0.037 | 1.02 ± 0.027 | 1.02 ± 0.014 | 0.992 ± 0.033 | 1.01 ± 0.024 | 0.997 ± 0.013 | 1.02 ± 0.015 | 1.03 ± 0.012 | 1.03 ± 0.018 | 1.06 ± 0.032 | 1.06 ± 0.049 | 0.998 ± 0.025 | 1.045 ± 0.0076 |
| NCIH441 LUNG | 1.06 ± 0.071 | 1.07 ± 0.12 | 1.08 ± 0.059 | 1.17 ± 0.067 | 1.03 ± 0.053 | 1.09 ± 0.043 | 1 ± 0.061 | 1.18 ± 0.054 | 1.14 ± 0.074 | 1.08 ± 0.12 | 1.1 ± 0.099 | 1.18 ± 0.09 | 1.09 ± 0.029 | 1.15 ± 0.087 | 1.1 ± 0.025 | 1.17 ± 0.026 |
| NOS1 BONE | 1.16 ± 0.16 | 1.05 ± 0.12 | 1.11 ± 0.069 | 1.12 ± 0.033 | 1.13 ± 0.068 | 1.08 ± 0.13 | 1.03 ± 0.093 | 0.898 ± 0.029 | 1.08 ± 0.18 | 0.975 ± 0.046 | 1.07 ± 0.028 | 1.137 ± 0.0086 | 1.21 ± 0.22 | 1.35 ± 0.13 | 1.16 ± 0.032 | 1.17 ± 0.053 |
| NY BONE | 1.02 ± 0.025 | 1.03 ± 0.042 | 1.05 ± 0.025 | 1.1 ± 0.05 | 1 ± 0.028 | 1.1 ± 0.046 | 0.9837 ± 0.0064 | 1.04 ± 0.027 | 0.936 ± 0.024 | 0.976 ± 0.03 | 1.06 ± 0.022 | 1.06 ± 0.048 | 1.01 ± 0.035 | 1.05 ± 0.047 | 0.951 ± 0.0076 | 1.01 ± 0.054 |
| OS25HAL BONE | 1.01 ± 0.018 | 1.06 ± 0.018 | 1.06 ± 0.066 | 1 ± 0.024 | 1.05 ± 0.029 | 1.04 ± 0.0055 | 1.09 ± 0.044 | 1.1 ± 0.053 | 1.01 ± 0.026 | 1.11 ± 0.059 | 1.03 ± 0.032 | 0.996 ± 0.024 | 1.001 ± 0.0068 | 1.08 ± 0.04 | 1.03 ± 0.018 | 1.16 ± 0.027 |
| OSHN BONE | 1.03 ± 0.026 | 1.098 ± 0.0061 | 1.09 ± 0.025 | 1.1 ± 0.011 | 1.05 ± 0.02 | 1.08 ± 0.015 | 1.067 ± 0.0071 | 1.1 ± 0.015 | 1.02 ± 0.022 | 1.106 ± 0.0076 | 1.07 ± 0.017 | 1.099 ± 0.004 | 1.06 ± 0.026 | 1.13 ± 0.03 | 1.09 ± 0.02 | 1.11 ± 0.024 |
| PCI30 HEADNECK | 1.06 ± 0.033 | 1.05 ± 0.06 | 1.05 ± 0.052 | 1.06 ± 0.084 | 1.14 ± 0.063 | 1.18 ± 0.062 | 1.01 ± 0.069 | 0.989 ± 0.071 | 1 ± 0.031 | 1.02 ± 0.058 | 1.04 ± 0.03 | 1.1 ± 0.08 | 1.05 ± 0.031 | 1.13 ± 0.045 | 1.07 ± 0.082 | 1.16 ± 0.015 |
| RDES SOFT TISSUE | – | 1.21 ± 0.12 | 1.14 ± 0.11 | 1.13 ± 0.13 | 1.09 ± 0.053 | 1.19 ± 0.11 | 1.41 ± 0.18 | 1.55 ± 0.19 | 1.25 ± 0.14 | 1.25 ± 0.05 | 1.29 ± 0.042 | 1.32 ± 0.054 | 1.37 ± 0.13 | 1.35 ± 0.24 | 1.68 ± 0.053 | 1.67 ± 0.12 |
| S68 BREAST | 1.12 ± 0.24 | 1.01 ± 0.2 | 1.17 ± 0.11 | 1.26 ± 0.22 | 1.07 ± 0.08 | 1.1 ± 0.33 | 0.71 ± 0.058 | 0.769 ± 0.032 | 0.829 ± 0.095 | 0.815 ± 0.21 | 0.993 ± 0.36 | 0.818 ± 0.095 | 1.14 ± 0.17 | 1 ± 0.059 | 1.1 ± 0.12 | 0.878 ± 0.066 |
| SAOS2 BONE | 1.14 ± 0.027 | 1.19 ± 0.066 | 1.24 ± 0.038 | 1.24 ± 0.049 | 1.18 ± 0.065 | 1.24 ± 0.099 | 1.21 ± 0.11 | 1.15 ± 0.22 | 1.16 ± 0.15 | 1.24 ± 0.047 | 1.24 ± 0.091 | 1.23 ± 0.061 | 1.26 ± 0.11 | 1.22 ± 0.089 | 1.24 ± 0.084 | 1.18 ± 0.072 |
| SCC003 HEADNECK | 1.08 ± 0.05 | 1.13 ± 0.054 | 1.06 ± 0.067 | 1.11 ± 0.079 | 0.963 ± 0.011 | 0.964 ± 0.054 | 0.757 ± 0.015 | 0.64 ± 0.069 | 1.05 ± 0.056 | 1.06 ± 0.15 | 1.14 ± 0.012 | 1.12 ± 0.058 | 1.06 ± 0.084 | 1.1 ± 0.064 | 1.09 ± 0.017 | 1.15 ± 0.075 |
